For series [1] the following is noted: cited from earlier work.
The conditions of series [2]: cited from earlier work. The source holds these as a separate data set.
The nature of series [3]: Cytotoxicity assay. Format: cell-based. The settings on record: African green monkey, Vero E6 cells.
For series [4] the following is noted: can go up; cited from earlier work.
In series [5] the test system is SARS-CoV-2 (clinically isolated strain IHUMI-3). Format: cell-based. Particulars: for Selectivity index (SI), ratio CC50/EC50: Vero E6 cells.
Series [6] has as its system SARS-CoV-2. Particulars: read-out: EC50 against SARS-CoV-2; Vero E6 cells, MOI of 0.2; cited from earlier work.
For series [7] the following is noted: cited from earlier work. The source holds these as a separate data set.
Series [8] concerns SARS-CoV-1. Particulars: mouse; cited from earlier work.
Series [9] concerns SARS-CoV-1. Particulars: read-out: EC50 against SARS-CoV-1; cited from earlier work.
Series [10] concerns Ebola virus. Particulars: read-out: EC50 against Ebola virus; cited from earlier work.
The subject of series [11] is Ebola virus. Particulars: mouse, in vivo; cited from earlier work.
Series [12] concerns SARS-CoV-2. The settings on record: 10 μM, Vero E6 cells infected by SARS-CoV-2; cited from earlier work.
The conditions of series [13]: human, uptake of 612 mg, extrapolated from 0.07% of dose in rat lung.
In series [14] the test system is dengue virus type 2. Particulars: cited from earlier work.
Series [15] deals with feline coronavirus. Particulars: read-out: EC50 against feline coronavirus; cited from earlier work.
Series [16] deals with SARS-CoV-2. The settings on record: read-out: EC50 against SARS-CoV-2; in vitro; cited from earlier work.
The conditions of series [17]: at 6 h; cited from earlier work.
Where [18] appears, read: amodiaquine given at 612 mg day.
[19] abbreviates: rats, single oral dose of 2 mg (10 mg/kg).

This is an account of results in publication PMC7477610 (Travel Medicine and Infectious Disease, 2020).

Where “and” joins values, the source holds several entries; their conditions need not be identical. Equal entries are not always repeated. Where two headings read alike, the source gives them in different places.

What is called CC50 is the concentration that lowers cell viability or growth by half. Low values mean harm at low concentration, high ones better tolerance by the cells. In the case of `C=C[C@H]1C[N@@]2CC[C@H]1C[C@H]2[C@H](O)c1ccnc2ccc(OC)cc12` [Quinine], the Concentration lung/blood ratio in series [1] (rat, intravenous dose of 10 mg/kg) is recorded as 246. The “Blood Cmax” value in [2] (600 mg single oral dose of quinine sulphate) is given as “around 3.5 mg/l”. Also, the Cmax in series [2] (read-out: Blood Cmax, 600 mg single oral dose of quinine sulphate) is roughly 8500 nM. Also, the CC50 at 48 h in series [3] was greater than 100 µM.
For `CCN(CC)CCCC(C)Nc1ccnc2cc(Cl)ccc12` (stereo not shown) [Chloroquine], the Plasma concentration in [2] (chloroquine 100 mg day, prophylaxis of malaria) is 0.01–0.4 mg/l and 0.03–1.25 μM. Besides, the “Concentration in the lung” value in series [4] is listed as “up to 280 mg/kg”. The “Selectivity index (SI), ratio CC50/EC50” value in series [5] is greater than 47. Moreover, the EC50 in series [6] was 7.1 µM; in [9] it was 2.5 µM. The CC50 at 48 h in [3] was greater than 100 µM. In series [7], the Adverse events is given as 56%. The “In vivo activity on SARS-CoV-1” value in series [8] was “inactive”.
With `CCNCc1cc(Nc2ccnc3cc(Cl)ccc23)ccc1O` [Desethylamodiaquine], in series [2] (setting [18]), the “Plasma concentration of desethylamodiaquine” value was 753 ng/ml and around 1.9 μM; the t1/2 is on record as 8.9 days. In addition, in [3], the CC50 at 48 h is 86.1 ± 10.5 µM.
Consider `COc1ccc2nc3cc(Cl)ccc3c(Nc3cc(CN4CCCC4)c(O)c(CN4CCCC4)c3)c2n1` [Pyronaridine], for which, in [1] (setting [19]), the “Blood Cmax” value was 223 ng/mL, the “Lung Cmax” value is 36.4 µg/g and the “Lung Cmax relative to blood Cmax (more concentrated)” value is on record as 165. The t1/2 in series [2] (720 mg day, human) is reported as 33.5 days. Further, in series [2] (720 mg day, human, listed as Pyronaridine tetraphosphate), the Plasma concentration was 271 ng/ml and around 0.3 μM. For the same compound, the EC50 in series [10] was 1.14 µM. The “Selectivity index (SI), ratio CC50/EC50” value in series [5] worked out at 22. This compound gave a CC50 at 48 h in series [3] of 15.9 ± 1.6 µM. In series [11], the “Protection against Ebola virus infection” value was “protected mice”. Besides, the Adverse events entry in series [7] is recorded as “around 38%”.
`OC(c1cc(C(F)(F)F)nc2c(C(F)(F)F)cccc12)C1CCCCN1` (stereo not shown) [Mefloquine]: the “Inhibition of cytopathic effect” value in [12] was “inhibited completely”. This compound also displayed a CC50 at 48 h in [3] of 14.4 ± 2.1 µM.
For the compound `CCCCN(CCCC)CC(O)c1cc(Cl)cc2c1-c1ccc(Cl)cc1/C2=C/c1ccc(Cl)cc1` (stereo not shown) [Lumefantrine], the Cmax in [2] (single oral dose 480 mg) was 1100 nM. For the same compound, the “Selectivity index (SI), ratio CC50/EC50” value in series [5] is given as 4. The same compound registered a CC50 at 48 h in series [3] of 87.7 ± 11.9 µM.
Regarding `CCN(CC)Cc1cc(Nc2ccnc3cc(Cl)ccc23)ccc1O` [Amodiaquine], the “Amount that would be found in lungs” value in [13] was 428 µg. Further, the EC50 in series [14] (read-out: EC50, dengue virus type 2 replication) was 1.08 µM; in series [9] it was 2.5 µM. Further, the EC90 in series [14] (read-out: EC90, dengue virus type 2 replication) was 2.69 µM. Also, in series [8], the “In vivo activity on SARS-CoV-1” value was “inactive”.
For the compound Ferroquine, in [2] (oral uptake of 800 mg), the “Mean Cmax (maximum blood concentration)” value was 155 ng/mL. Further, in series [2] (oral uptake of 800 mg), the “t1/2 (elimination half-life)” value was 10.9 days. Moreover, the Cmax in [2] (read-out: Mean Cmax (maximum blood concentration), oral uptake of 800 mg) is roughly 600 nM. Besides, in series [5] (read-out: 90% effective concentration (EC90) against SARS-CoV-2), the EC90 was 2.4 ± 0.9 µM. The results for the EC50 in [5] (read-out: Median effective concentration (EC50) against SARS-CoV-2), in series [15] and in [9] were 1.5 ± 0.3 µM, 2.9 µM and 1.4 µM, respectively.
Regarding `C[C@H]1c2cccc(O)c2C(=O)C2=C(O)[C@]3(O)C(=O)C(C(N)=O)=C(O)[C@@H](N(C)C)[C@@H]3[C@@H](O)[C@@H]21` [doxycycline], the EC50 in [16] was 5.6 µM.
Take `Clc1ccc2c(N3CCN(CCCN4CCN(c5ccnc6cc(Cl)ccc56)CC4)CC3)ccnc2c1` [Piperaquine]: in [5], the “Selectivity index (SI), ratio CC50/EC50” value is on record as 2. Besides, in [3], the CC50 at 48 h was found to be 55 ± 4.8 µM.
Consider `CCN(CCO)CCCC(C)Nc1ccnc2cc(Cl)ccc12` (stereo not shown) [Hydroxychloroquine], for which the Cmax in [2] (oral uptake of 400 mg) is 1220 nM. Besides, in series [6], the EC50 was 17.3 µM. Moreover, in series [17], the Blood concentration entry was “around 0.3 μM” and the Lung concentration is 7.8 µM. This compound came in with a CC50 at 48 h in [3] of 20.4 ± 1.4 µM.
Regarding `C[C@H]1[C@@H](O)O[C@@H]2O[C@@]3(C)CC[C@H]4[C@H](C)CC[C@@H]1[C@@]24OO3` [Dihydroartemisinin], the “Selectivity index (SI), ratio CC50/EC50” value in series [5] came out at 3. Further, in [3], the CC50 at 48 h is 58.9 ± 7.4 µM.
